Experimental data: patent US9580473B2, “Method of inhibiting HIV-1 binding to genital epithelia using V3 loop-specific peptides and GP340-specific antibodies” (priority 2006, dated 2017)

What was measured:
HIV-1 BL2 virus = test: Trans-infection assay, vaginal epithelial cells (VK2E6E7) to PHA-blasts; assay type: cell-based; conditions: pre-incubation with antibody, or peptide at time of viral pulsing; p24 after 7 days
Description: Vaginal epithelial cells (VK2E6E7) were incubated with isotype control or gp-340-specific antibodies 116 or DAPA and then pulsed with HIV-1 BL2 virus. After extensive washing, PHA-blasts were added for 24 h and then moved to new plates without VK2E6E7 cells. After 7 days, p24 Gag protein content in the supernatant was measured. Samples were run in triplicate and standard error of the mean is given.
(§1) Parental or gp-340 expressing 293 cells, VK2E6E7, Endo1E6E7, Ect1E6E7, or AGS cells or 1 mm^3 pieces of ectocervix obtained as described below seeded in 96 well plates were incubated with various IU inputs of HIV, in 100 μl final volume for 2 h at 37° C. and then extensively washed. Additional inhibitors, peptides or antibodies, were added to cells 30 min prior to pulsing with virus and replaced after cells were washed. Plates were centrifuged at 1250 rpm for 7 minutes between each wash. After viral incubation and washing, PHA-blasts were cocultured with the pulsed cells for 7 days at 37° C. with IL-2. Infection was monitored by measuring supernatant-associated p24 Gag protein content on day 7. TCID50 was calculated using the Reed-Münch formula.
Cell lines were pulsed with decreasing amounts of HIV Ba-L, washed and had target cells immediately added or added after 2 or 4 days of culture. […]

gp-340 = gp-340 (Homo sapiens, UniProt Q9UGM3); conditions: previously shown/demonstrated; cited from earlier work
[1] = system: HIV (primary M-tropic strain BL2); test: Trans-infection assay, 293 clone 1D4 stably expressing gp-340 pulsed with HIV, cocultured with PHA-blasts; assay type: cell-based, HIV-1; conditions: for mean P24, transmission by clone 1D4 in presence of peptide: average of 6 wells
Description: FIG. 1. 293 cells stably expressing cell surface gp-340 enhance the transfer of HIV to target cells. (A) 293 cells and a clone, 1D4, stably expressing gp-340, were stained for surface expression of gp-340 using rabbit polyclonal antibody 1527. Isotype control stained cells shown are 293 cells, but the 1D4 clone gave the same pattern. (B) Clone 1D4 and 293 cells were pulsed with increasing IU of HIV BL2 virus with or without a V3-derived peptide 6284 (10 μg/ml) that blocks Env-gp-340 binding, washed and exposed to PHA-blasts for 7 days. IUs were calculated using PHA-blasts as target cells in a TCID50 assay. Experiment was performed in replicates of 6 wells per viral addition and data is expressed as the percentage of the wells that became infected.
as §1, with “After viral incubation and washing, PHA-blasts were cocultured with the pulsed cells for 7 days at 37° C. with IL-2.” left out
Secreted gp-340 found at high levels in the oral cavity and also exists in a cell surface-associated form, although mRNA containing exon 55, which encodes the putative transmembrane domain, has not yet been detected. […] The gp-340 expressing cell lines were measured for their ability to transmit cell-free HIV to human PHA- and IL-2-stimulated PBMCs (PHA-blasts). […] Infection was monitored by p24 Gag protein content in the culture supernatant in each well and scored for the presence or absence of infection. The assay used 6 replicates of cells for each viral dilution and condition and calculated the number of wells that became infected at each amount of added virus. […]

HIV [2] = test: Direct HIV infection of PHA-blasts with peptide added before HIV; assay type: cell-based, HIV-1; conditions: peptide added to PHA-blasts prior to HIV
HIV strain BL2 = test: Trans-infection assay, AGS cells expressing endogenous gp-340 to T cell blasts; assay type: cell-based, HIV-1; conditions: peptide 10 μg/ml, 15 min preincubation, p24 7 days later
Description: FIG. 2 Transmission of HIV by AGS cells expressing endogenous gp-340 is inhibited by peptide corresponding to the V3 domain of Env. AGS cells were preincubated with gp-340-specific peptide 6283 or 6284, and control peptide 6220 (10 μg/ml) for 15 min and then pulsed with decreasing amounts of HIV strain BL2. After viral exposure, the cells were washed four times to remove unbound virus and cocultured with T cell blasts in the absence of peptides for 24 h. The T cell blasts were then moved to new wells and p24 Gag antigen content was measured 7 days later. IUs were calculated using PHA-blasts as target cells in a TCID50 assay. Experiment was performed in replicates of six per virus concentration. Data is expressed as the percentage of the 6 wells in which the cells became infected for each virus concentration.
as §1
To examine native expressed gp-340, the gastrointestinal carcinoma cell line AGS, which is expresses gp-340, was analyzed for its ability to transmit HIV in vitro. AGS cells enhanced transmission of HIV to target CD4^+ T cells. Cells were infected in 50% of the wells when 0.08 infectious units (IU) of virus were pulsed per well. This represented a 6-fold enhancement in the viral infectivity by gp-340. Peptides 6283 and 6284, derived from the proposed gp-340 binding site in Env, abolished the enhancement in infectivity. […]

HIV [3] = test: Trans-infection by genital tract epithelial cell lines; assay type: cell-based; conditions: treatment completely removes syndecan expression

Chain of gp-340 (Q9UGM3 20-2413): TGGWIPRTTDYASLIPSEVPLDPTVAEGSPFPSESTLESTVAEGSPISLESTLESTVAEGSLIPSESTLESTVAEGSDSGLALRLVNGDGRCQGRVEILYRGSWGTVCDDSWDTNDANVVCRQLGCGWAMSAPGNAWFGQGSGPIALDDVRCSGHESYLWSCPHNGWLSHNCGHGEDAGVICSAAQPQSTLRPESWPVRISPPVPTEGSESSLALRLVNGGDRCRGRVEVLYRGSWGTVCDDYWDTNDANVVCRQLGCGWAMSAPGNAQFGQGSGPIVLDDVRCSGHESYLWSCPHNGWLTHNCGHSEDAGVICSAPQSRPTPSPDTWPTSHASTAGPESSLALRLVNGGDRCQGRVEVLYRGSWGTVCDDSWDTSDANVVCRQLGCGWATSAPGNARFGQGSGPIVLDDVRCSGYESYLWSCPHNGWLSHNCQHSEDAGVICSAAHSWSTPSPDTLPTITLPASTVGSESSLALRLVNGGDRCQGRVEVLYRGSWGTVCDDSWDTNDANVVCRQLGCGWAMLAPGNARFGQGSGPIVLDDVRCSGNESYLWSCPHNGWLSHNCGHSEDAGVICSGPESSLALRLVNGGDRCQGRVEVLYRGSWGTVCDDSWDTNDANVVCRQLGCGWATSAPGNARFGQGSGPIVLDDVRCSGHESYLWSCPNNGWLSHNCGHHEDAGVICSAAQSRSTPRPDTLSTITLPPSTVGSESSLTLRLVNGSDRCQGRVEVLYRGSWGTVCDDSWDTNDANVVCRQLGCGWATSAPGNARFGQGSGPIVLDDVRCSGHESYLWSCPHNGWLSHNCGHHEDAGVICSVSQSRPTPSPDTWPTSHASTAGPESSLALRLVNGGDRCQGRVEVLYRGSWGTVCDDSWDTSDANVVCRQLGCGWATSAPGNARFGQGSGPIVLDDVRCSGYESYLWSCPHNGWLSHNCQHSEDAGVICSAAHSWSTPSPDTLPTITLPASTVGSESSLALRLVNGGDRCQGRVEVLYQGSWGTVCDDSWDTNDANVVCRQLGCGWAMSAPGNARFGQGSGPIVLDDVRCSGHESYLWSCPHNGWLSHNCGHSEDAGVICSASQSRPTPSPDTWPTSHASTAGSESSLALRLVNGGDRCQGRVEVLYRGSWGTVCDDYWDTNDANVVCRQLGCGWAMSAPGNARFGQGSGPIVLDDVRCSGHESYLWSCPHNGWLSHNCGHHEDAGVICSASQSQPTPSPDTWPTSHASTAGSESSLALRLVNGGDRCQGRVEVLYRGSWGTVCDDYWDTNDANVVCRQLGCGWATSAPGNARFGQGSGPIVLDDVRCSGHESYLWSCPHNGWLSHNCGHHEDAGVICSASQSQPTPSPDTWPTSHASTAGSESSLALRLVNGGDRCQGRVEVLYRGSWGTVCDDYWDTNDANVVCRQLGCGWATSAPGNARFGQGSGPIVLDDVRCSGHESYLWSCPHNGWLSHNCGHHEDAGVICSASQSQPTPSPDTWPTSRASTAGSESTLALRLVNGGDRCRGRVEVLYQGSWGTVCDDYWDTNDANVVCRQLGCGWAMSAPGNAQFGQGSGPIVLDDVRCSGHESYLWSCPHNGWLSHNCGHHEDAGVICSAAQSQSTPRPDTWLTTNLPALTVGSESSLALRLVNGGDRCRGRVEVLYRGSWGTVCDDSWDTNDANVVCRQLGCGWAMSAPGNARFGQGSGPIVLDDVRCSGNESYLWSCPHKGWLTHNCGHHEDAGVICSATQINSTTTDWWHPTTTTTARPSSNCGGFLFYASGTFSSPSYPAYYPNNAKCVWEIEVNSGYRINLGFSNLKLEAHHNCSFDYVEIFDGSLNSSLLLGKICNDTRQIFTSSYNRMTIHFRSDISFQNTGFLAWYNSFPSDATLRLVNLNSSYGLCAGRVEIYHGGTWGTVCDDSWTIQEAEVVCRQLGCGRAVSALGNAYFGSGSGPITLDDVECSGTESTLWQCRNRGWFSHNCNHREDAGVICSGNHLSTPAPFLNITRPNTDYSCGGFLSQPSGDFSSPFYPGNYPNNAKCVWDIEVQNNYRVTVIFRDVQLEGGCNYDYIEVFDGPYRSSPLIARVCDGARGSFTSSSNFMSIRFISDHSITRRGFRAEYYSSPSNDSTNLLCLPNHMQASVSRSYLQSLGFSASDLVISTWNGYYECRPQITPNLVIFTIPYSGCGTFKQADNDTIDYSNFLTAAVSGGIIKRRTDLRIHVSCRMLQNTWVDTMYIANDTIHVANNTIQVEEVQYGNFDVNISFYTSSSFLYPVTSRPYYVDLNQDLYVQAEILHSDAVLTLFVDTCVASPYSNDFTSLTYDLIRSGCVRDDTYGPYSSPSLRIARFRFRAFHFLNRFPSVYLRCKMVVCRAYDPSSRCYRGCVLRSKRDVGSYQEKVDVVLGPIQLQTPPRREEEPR

DAPA
ability of VK2E6E7 cells to bind and transmit HIV to PHA-blasts (HIV-1 BL2 virus): markedly decreased
Env binding to gp-340 (gp-340): inhibit

CTRPNYNKRKRIHIG [peptide 6284]
mean P24, transmission by clone 1D4 in presence of peptide ([1]; 0.11 IU viral input, without peptide 184): 7
mean P24, transmission by clone 1D4 in presence of peptide ([1]; 0.33 IU viral input, without peptide 239): 7
enhancement of HIV trans-infection (TCID50) by gp-340-expressing cells ([1]; gp-340-expressing 293 cells pre-incubated with peptide 10 μg/ml, HIV BL2, PHA-blasts 7 days): abolished
infection of PHA-blasts (HIV [2]): did not affect
enhancement in infectivity (transmission of HIV by AGS cells) (HIV strain BL2): abolished
Env binding to gp-340 (gp-340): block

VQINCTRPNYNKRKR [peptide 6283]
enhancement in infectivity (transmission of HIV by AGS cells) (HIV strain BL2): abolished

KEATTTLFCASDAKA (Human) [peptide 6220, control peptide derived from another part of Env, reference compound]
enhancement in infectivity (transmission of HIV by AGS cells) (HIV strain BL2): had no impact

B1: heparinase: enzyme treatment that completely removes syndecan expression (protein, UniProt Q59289 25-659, looked up)
Heparin-sulfate lyase: QSSSITRKDFDHINLEYSGLEKVNKAVAAGNYDDAAKALLAYYREKSKAREPDFSNAEKPADIRQPIDKVTREMADKALVHQFQPHKGYGYFDYGKDINWQMWPVKDNEVRWQLHRVKWWQAMALVYHATGDEKYAREWVYQYSDWARKNPLGLSQDNDKFVWRPLEVSDRVQSLPPTFSLFVNSPAFTPAFLMEFLNSYHQQADYLSTHYAEQGNHRLFEAQRNLFAGVSFPEFKDSPRWRQTGISVLNTEIKKQVYADGMQFELSPIYHVAAIDIFLKAYGSAKRVNLEKEFPQSYVQTVENMIMALISISLPDYNTPMFGDSWITDKNFRMAQFASWARVFPANQAIKYFATDGKQGKAPNFLSKALSNAGFYTFRSGWDKNATVMVLKASPPGEFHAQPDNGTFELFIKGRNFTPDAGVFVYSGDEAIMKLRNWYRQTRIHSTLTLDNQNMVITKARQNKWETGNNLDVLTYTNPSYPNLDHQRSVLFINKKYFLVIDRAIGEATGNLGVHWQLKEDSNPVFDKTKNRVYTTYRDGNNLMIQSLNADRTSLNEEEGKVSYVYNKELKRPAFVFEKPKKNAGTQNFVSIVYPYDGQKAPEISIRENKGNDFEKGKLNLTLTINGKQQLVLVP
trans-infection after heparinase treatment (HIV [3]): no effect
